Data from PMC6095690, “Coalescing beneficial host and deleterious antiparasitic actions as an antischistosomal strategy” (eLife, 2018).
Read-outs that look alike come from different tables or passages of the source.

How the values were obtained:
Sm.5HTRL [1] = molecular target: T1, Sm.5HTRL (Schistosoma mansoni, UniProt A0A173FEI8)
[2] = test system: parental HEK293 cell line expressing the GloSensor 22F cAMP sensor and lacking Sm.5HTRL; test: counter-screen of agonist hits: basal cAMP luminescence in parental reporter line; format: cell-based
Sm.5HTRL [3] = molecular target: T1, Sm.5HTRL; test: cell-based
[4] = test system: adult S. mansoni male and female pairs; test: egg laying assay of worm pairs cultured ex vivo; settings: 100 µM, five days
immature S. mansoni = test: movement of immature worms harvested 4 weeks post infection, ex vivo; parameters: species or system Schistosoma mansoni; settings: male worms 4 weeks post infection
Excerpt: Figure 6. […] Figure 6—figure supplement 1. […] Scale = 50 µm. [drawing 7]

Sj.5HTR = Sj.5HTR (Schistosoma japonicum, UniProt A0A346LTY2); test: cell-based
[5] = test system: adult S. mansoni parasites; test: adult worm movement assay ex vivo; parameters: species or system Schistosoma mansoni; settings: for EC50: read-out: EC50 for stimulation of adult schistosome movement
Sh.5HTR = Sh.5HTR (Schistosoma haematobium, UniProt A0A922S615); format: cell-based; settings: receptor transiently transfected into stable HEK293 cAMP reporter line; read-out: EC50 of cAMP luminescence response
[6] = test system: S. mansoni (mature infection in Swiss Webster mice); test: hepatic shift assay in infected mice; settings: intraperitoneal, sacrificed three hours later; dose not given
[7] = agonist hit counter screen, cells lacking Sm.5HTRL
[8] = Schistosoma mansoni, ex vivo, ± 95% confidence interval

T1 sequence (A0A173FEI8 1-547): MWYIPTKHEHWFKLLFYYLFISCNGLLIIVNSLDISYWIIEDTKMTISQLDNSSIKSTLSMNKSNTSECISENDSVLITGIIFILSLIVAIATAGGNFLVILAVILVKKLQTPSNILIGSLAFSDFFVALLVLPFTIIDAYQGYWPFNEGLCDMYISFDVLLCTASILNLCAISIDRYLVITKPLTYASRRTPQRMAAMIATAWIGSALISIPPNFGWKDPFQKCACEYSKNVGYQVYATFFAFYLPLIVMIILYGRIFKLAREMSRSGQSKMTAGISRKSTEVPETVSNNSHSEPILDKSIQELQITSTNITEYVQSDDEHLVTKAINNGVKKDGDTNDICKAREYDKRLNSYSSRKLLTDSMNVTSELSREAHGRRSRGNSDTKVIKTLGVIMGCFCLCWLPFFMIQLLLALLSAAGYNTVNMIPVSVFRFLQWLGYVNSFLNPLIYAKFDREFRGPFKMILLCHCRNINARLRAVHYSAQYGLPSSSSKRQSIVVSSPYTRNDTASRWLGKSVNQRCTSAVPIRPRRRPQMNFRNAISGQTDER
Sj.5HTR, sequence (A0A346LTY2 entry or part of it): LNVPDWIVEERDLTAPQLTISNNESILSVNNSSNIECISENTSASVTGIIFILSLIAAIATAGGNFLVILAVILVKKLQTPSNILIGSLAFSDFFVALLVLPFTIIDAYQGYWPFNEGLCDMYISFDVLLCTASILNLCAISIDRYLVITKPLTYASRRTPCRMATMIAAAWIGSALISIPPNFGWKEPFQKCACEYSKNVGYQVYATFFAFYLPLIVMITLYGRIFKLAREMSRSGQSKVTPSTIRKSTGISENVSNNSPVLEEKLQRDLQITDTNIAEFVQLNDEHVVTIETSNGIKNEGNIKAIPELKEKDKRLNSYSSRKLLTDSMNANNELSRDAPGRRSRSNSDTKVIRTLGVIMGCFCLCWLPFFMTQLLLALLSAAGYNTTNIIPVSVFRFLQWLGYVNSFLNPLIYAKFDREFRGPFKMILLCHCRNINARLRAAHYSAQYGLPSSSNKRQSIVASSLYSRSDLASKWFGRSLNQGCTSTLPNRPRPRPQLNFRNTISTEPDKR

COc1cc(C(=O)NCCOc2ccccc2C)cc(OC)c1OC [ST005872]
(+) Sm.5HTRL fold change (Sm.5HTRL [1]; agonist hit validation): 10.4008 fold change | (-)Sm.5HTRL fold change [2, 7]: 0.7305 fold change

C=C[C@]1(C)C=C2CC[C@@H]3[C@](C)(CCC[C@@]3(C)C(=O)O)[C@H]2CC1 [compound 6435]
(+) Sm.5HTRL fold change (Sm.5HTRL [1]; agonist hit validation): 200.129 fold change | (-)Sm.5HTRL fold change [2, 7]: 0.9901 fold change

CN1CC(C(=O)NC2(C)OC3(O)C4CCCN4C(=O)C(Cc4ccccc4)N3C2=O)C=C2c3cccc4[nH]cc(c34)CC21.O=C(O)C(O)C(O)C(=O)O (centres unmarked) [ST072185]
(+) Sm.5HTRL fold change (Sm.5HTRL [1]): 29.8904 fold change | (-)Sm.5HTRL fold change [2]: 1.0 fold change

Cc1ccc2[nH]c(CCN)cc2c1.Cl [ST070930]
(+) Sm.5HTRL fold change (Sm.5HTRL [1]; agonist hit validation): 17.0489 fold change | (-)Sm.5HTRL fold change [2, 7]: 1.1 fold change

CCN1C[C@]2(COC)[C@H](O)C[C@H](OC)[C@]34C1[C@H]([C@H](OC)[C@H]23)[C@]1(OC(C)=O)[C@H]2[C@@H](OC(=O)c3ccccc3)[C@](O)(C[C@H]24)[C@@H](OC)[C@@H]1O [compound 56464]
Sm.5HTRL agonism (fold change luminescence) (Sm.5HTRL [1]): 1.997 fold change luminescence | Sm.5HTRL antagonism (% of control 5-HT response) (Sm.5HTRL [1]): 1.042 % of control 5-HT response

Nc1ncnc2c1ncn2[C@@H]1O[C@H](COP(=O)(O)OP(=O)(O)O)[C@@H](O)[C@H]1O [ST057097]
(+) Sm.5HTRL fold change (Sm.5HTRL [1]; agonist hit validation): 11.9433 fold change | (-)Sm.5HTRL fold change [2, 7]: 1.0 fold change

NCCc1c[nH]c2cccc(OC(=O)c3ccc(C(=O)O)cc3)c12 [ST070282]
(+) Sm.5HTRL fold change (Sm.5HTRL [1]; hek293 cells): 12.6864 fold change | (-)Sm.5HTRL fold change [2, 7]: 1.366 fold change

CN1C[C@H](C(=O)N[C@]2(C)O[C@@]3(O)[C@@H]4CCCN4C(=O)[C@H](Cc4ccccc4)N3C2=O)C[C@@H]2c3cccc4[nH]cc(c34)C[C@H]21.CS(=O)(=O)O [ST056346]
(+) Sm.5HTRL fold change (Sm.5HTRL [1]): 94.3413 fold change | (-)Sm.5HTRL fold change [2, 7]: 1.4 fold change

CNCCc1c[nH]c2ccc(O)cc12.O=C(O)C(=O)O [ST055634]
(+) Sm.5HTRL fold change (Sm.5HTRL [1]; hek293 cells): 165.214 fold change | (-)Sm.5HTRL fold change [2, 7]: 1.3 fold change

COc1cc2c(c(OC)c1OC)-c1ccc(OC)c(=O)cc1[C@@H](NC(C)=O)CC2 [compound 757]
Sm.5HTRL agonism (fold change luminescence) (Sm.5HTRL [1]): 1.502 fold change luminescence | Sm.5HTRL antagonism (% of control 5-HT response) (Sm.5HTRL [1]): 1.228 % of control 5-HT response

COc1cc(C)c2c(c1C=O)Oc1c(c(C)c(O)c3c1C(O)OC3=O)OC2=O (centres unmarked) [compound 87511]
Sm.5HTRL antagonism (% of control 5-HT response) (Sm.5HTRL [1]; primary screen, compound 10 µM then 5-HT 1 µM, 384 well, single replicate): 0.8125 % of control 5-HT response | fold induction at 10 µM (Sm.5HTRL [3]; HEK293, read-out: Sm.5HTRL agonism (fold change luminescence)): 0.635

NCCc1c[nH]c2ccc(O)cc12 [5-HT, serotonin]
reduction of egg laying ex vivo [4]: 82.4 ± 2.2 % reduction | effect on movement of juvenile worms (immature S. mansoni): stimulated movement of juvenile worms | EC50 (Sj.5HTR): 3 ± 0.3 nM | EC50 [5, 8]: 51600 ± 3000 nM | effect on adult worm movement ([5]; ex vivo, 5-HT at 200 µM): increased worm movement | EC50 (Sm.5HTRL [3]): 76 ± 1 nM | fold induction at 1 µM (Sm.5HTRL [3]; HEK293, read-out: elevation in luminescence values (fold increase)): 70 to 110 | EC50 (Sh.5HTR): 3.6 ± 0.3 nM

Nc1ncnc2c1ncn2[C@@H]1O[C@H](CO)[C@@H](O)[C@H]1O [ST009496]
(+) Sm.5HTRL fold change (Sm.5HTRL [1]; agonist hit validation): 24.237 fold change | (-)Sm.5HTRL fold change [2, 7]: 3.9 fold change

CCN(CC)C(=O)[C@@H]1C=C2c3cccc4[nH]c(Br)c(c34)C[C@H]2N(C)C1 [BOL-148, 2-Bromo-LSD]
IC50 ([5]; Schistosoma mansoni, read-out: IC50 for inhibition of 5-HT evoked movement, 5-HT 200 µM, ex vivo, ± 95% confidence interval): 28.8 ± 23.1 nM | potency relative to bromocriptine ([5]; inhibition of 5-HT evoked movement): ~ 10 fold | type of activity at schistosome 5-HTRs (Sm.5HTRL [1]): antagonists | IC50 (Sm.5HTRL [3]): 100 ± 20 nM | percentage of worms in the liver [6]: 5.2 ± 2.3%

CCN(CC)C(=O)[C@@H]1C=C2c3cccc4[nH]cc(c34)C[C@H]2N(C)C1 [LSD, reference compound]
EC50 [5, 8]: 1400 ± 500 nM | type of activity at schistosome 5-HTRs (Sm.5HTRL [1]): partial agonist

Nc1ncnc2c1ncn2C1OC(CO)C(O)C1O (centres unmarked) [compound 7652]
(+) Sm.5HTRL fold change (Sm.5HTRL [1]; agonist hit validation): 49.711 fold change | (-)Sm.5HTRL fold change [2, 7]: 7.802 fold change
